Data: the NIST ThermoML archive (doi:10.1016/j.jct.2016.10.023)

Experiment: xn = mol fraction of the nth substance listed
Settings: Constant-volume piezometry

CCCCC [pentane] + CCCO
Settings | mass density [kg/m3]
543.15 K, 9051 kPa, Fluid (supercritical or subcritical phases), x1 = 0.2 | 378.24
543.15 K, 9246 kPa, Fluid (supercritical or subcritical phases), x1 = 0.8 | 288.09
543.15 K, 9255 kPa, Fluid (supercritical or subcritical phases), x1 = 0.2 | 383.04
543.15 K, 9409 kPa, Fluid (supercritical or subcritical phases), x1 = 0.9 | 301.38
543.15 K, 9589 kPa, Fluid (supercritical or subcritical phases), x1 = 0.2 | 390.87
543.15 K, 9630 kPa, Fluid (supercritical or subcritical phases), x1 = 0.8 | 298.89
543.15 K, 9923 kPa, Fluid (supercritical or subcritical phases), x1 = 0.9 | 312.01
543.15 K, 10354 kPa, Fluid (supercritical or subcritical phases), x1 = 0.8 | 315.05
543.15 K, 11098 kPa, Fluid (supercritical or subcritical phases), x1 = 0.9 | 333.7
543.15 K, 11177 kPa, Fluid (supercritical or subcritical phases), x1 = 0.2 | 418.27
543.15 K, 11295 kPa, Fluid (supercritical or subcritical phases), x1 = 0.8 | 333.52
543.15 K, 11953 kPa, Fluid (supercritical or subcritical phases), x1 = 0.8 | 345.03
543.15 K, 12737 kPa, Fluid (supercritical or subcritical phases), x1 = 0.9 | 353.77
543.15 K, 13394 kPa, Fluid (supercritical or subcritical phases), x1 = 0.8 | 361.57
543.15 K, 15943 kPa, Fluid (supercritical or subcritical phases), x1 = 0.2 | 469.86
543.15 K, 19097 kPa, Fluid (supercritical or subcritical phases), x1 = 0.9 | 406.88
543.15 K, 19983 kPa, Fluid (supercritical or subcritical phases), x1 = 0.8 | 417.78
543.15 K, 22804 kPa, Fluid (supercritical or subcritical phases), x1 = 0.2 | 509.01
543.15 K, 31784 kPa, Fluid (supercritical or subcritical phases), x1 = 0.8 | 466.21
543.15 K, 33595 kPa, Fluid (supercritical or subcritical phases), x1 = 0.2 | 546.39
543.15 K, 42744 kPa, Fluid (supercritical or subcritical phases), x1 = 0.8 | 495.57
543.15 K, 49093 kPa, Fluid (supercritical or subcritical phases), x1 = 0.2 | 580.61
553.15 K, 1401 kPa, Gas, x1 = 0.8 | 22.49
553.15 K, 1675 kPa, Gas, x1 = 0.2 | 24.89
553.15 K, 2144 kPa, Gas, x1 = 0.8 | 36.64
553.15 K, 3159 kPa, Gas, x1 = 0.8 | 58.33
553.15 K, 3511 kPa, Gas, x1 = 0.2 | 52.93
553.15 K, 3789 kPa, Gas, x1 = 0.8 | 73.69
553.15 K, 4048 kPa, Fluid (supercritical or subcritical phases), x1 = 0.9 | 83.26
553.15 K, 4680 kPa, Gas, x1 = 0.2 | 91.28
553.15 K, 4938 kPa, Fluid (supercritical or subcritical phases), x1 = 0.8 | 106.25
553.15 K, 5296 kPa, Fluid (supercritical or subcritical phases), x1 = 0.9 | 123.17
553.15 K, 5319 kPa, Fluid (supercritical or subcritical phases), x1 = 0.2 | 114.19
553.15 K, 5611 kPa, Fluid (supercritical or subcritical phases), x1 = 0.9 | 133.93
553.15 K, 6054 kPa, Fluid (supercritical or subcritical phases), x1 = 0.8 | 140.1
553.15 K, 6100 kPa, Fluid (supercritical or subcritical phases), x1 = 0.2 | 150.13
553.15 K, 6344 kPa, Fluid (supercritical or subcritical phases), x1 = 0.9 | 163.72
553.15 K, 6388 kPa, Fluid (supercritical or subcritical phases), x1 = 0.8 | 155.82
553.15 K, 6521 kPa, Fluid (supercritical or subcritical phases), x1 = 0.2 | 175.35
553.15 K, 6714 kPa, Fluid (supercritical or subcritical phases), x1 = 0.2 | 189.36
553.15 K, 6741 kPa, Fluid (supercritical or subcritical phases), x1 = 0.8 | 169.54
553.15 K, 6874 kPa, Fluid (supercritical or subcritical phases), x1 = 0.8 | 175.77
553.15 K, 6982 kPa, Fluid (supercritical or subcritical phases), x1 = 0.9 | 189.18
553.15 K, 6985 kPa, Fluid (supercritical or subcritical phases), x1 = 0.8 | 180.56
553.15 K, 7102 kPa, Fluid (supercritical or subcritical phases), x1 = 0.2 | 219.77
553.15 K, 7277 kPa, Fluid (supercritical or subcritical phases), x1 = 0.9 | 202.08
553.15 K, 7296 kPa, Fluid (supercritical or subcritical phases), x1 = 0.8 | 192.88
553.15 K, 7439 kPa, Fluid (supercritical or subcritical phases), x1 = 0.2 | 245.11
553.15 K, 7620 kPa, Fluid (supercritical or subcritical phases), x1 = 0.2 | 258.81
553.15 K, 7669 kPa, Fluid (supercritical or subcritical phases), x1 = 0.2 | 262.51
553.15 K, 7760 kPa, Fluid (supercritical or subcritical phases), x1 = 0.9 | 220.36
553.15 K, 7786 kPa, Fluid (supercritical or subcritical phases), x1 = 0.8 | 213.54
553.15 K, 7792 kPa, Fluid (supercritical or subcritical phases), x1 = 0.2 | 271.95
553.15 K, 7945 kPa, Fluid (supercritical or subcritical phases), x1 = 0.8 | 219.29
553.15 K, 8057 kPa, Fluid (supercritical or subcritical phases), x1 = 0.2 | 290.1
553.15 K, 8082 kPa, Fluid (supercritical or subcritical phases), x1 = 0.9 | 232.72
553.15 K, 8169 kPa, Fluid (supercritical or subcritical phases), x1 = 0.9 | 236.18
553.15 K, 8267 kPa, Fluid (supercritical or subcritical phases), x1 = 0.9 | 240.57
553.15 K, 8315 kPa, Fluid (supercritical or subcritical phases), x1 = 0.8 | 234.36
553.15 K, 8323 kPa, Fluid (supercritical or subcritical phases), x1 = 0.2 | 306.36
553.15 K, 8361 kPa, Fluid (supercritical or subcritical phases), x1 = 0.9 | 243.88
553.15 K, 8384 kPa, Fluid (supercritical or subcritical phases), x1 = 0.2 | 310.58
553.15 K, 8538 kPa, Fluid (supercritical or subcritical phases), x1 = 0.2 | 318.29
553.15 K, 8586 kPa, Fluid (supercritical or subcritical phases), x1 = 0.8 | 244.98
553.15 K, 8982 kPa, Fluid (supercritical or subcritical phases), x1 = 0.8 | 258.18
553.15 K, 9164 kPa, Fluid (supercritical or subcritical phases), x1 = 0.2 | 340.74
553.15 K, 9236 kPa, Fluid (supercritical or subcritical phases), x1 = 0.2 | 343.52
553.15 K, 9433 kPa, Fluid (supercritical or subcritical phases), x1 = 0.8 | 272.13
553.15 K, 9589 kPa, Fluid (supercritical or subcritical phases), x1 = 0.9 | 281.59
553.15 K, 10042 kPa, Fluid (supercritical or subcritical phases), x1 = 0.8 | 287.95
553.15 K, 10274 kPa, Fluid (supercritical or subcritical phases), x1 = 0.9 | 301.23
553.15 K, 10469 kPa, Fluid (supercritical or subcritical phases), x1 = 0.8 | 298.75
553.15 K, 10491 kPa, Fluid (supercritical or subcritical phases), x1 = 0.2 | 378.05
553.15 K, 10735 kPa, Fluid (supercritical or subcritical phases), x1 = 0.2 | 382.84
